Target: Complement factor D (Homo sapiens, UniProt P00746)
Experiment: Factor D Assay: Human factor D (purified from human serum, Complement Technology, Inc.) at 80 nM final concentration is incubated with test compound at various concentrations for 5 minutes at room temperature in 50 mM Tris, 1M NaCl, pH 7.5. A synthetic substrate Z-L-Lys-SBz1 and DTNB (Ellman's reagent) are added to final concentrations of 100 μM each. The increase in color is recorded at OD405 nm in a microplate in kinetic mode over 30 minutes with 30 second time points in a spectrofluorimeter. IC50 values are calculated by non-linear regression from the percentage of inhibition of complement factor D activity as a function of test compound concentration.

Chain of Complement factor D (P00746 whole entry): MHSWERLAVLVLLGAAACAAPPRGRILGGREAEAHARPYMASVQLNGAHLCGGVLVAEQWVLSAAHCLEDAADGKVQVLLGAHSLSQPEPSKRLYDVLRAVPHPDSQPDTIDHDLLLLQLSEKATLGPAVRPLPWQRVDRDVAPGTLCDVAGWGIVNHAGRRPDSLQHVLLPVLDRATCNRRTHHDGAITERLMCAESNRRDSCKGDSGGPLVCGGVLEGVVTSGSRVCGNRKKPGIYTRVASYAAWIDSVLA

Q: For `CC(=O)c1cn(CC(=O)N2C[C@H](F)C[C@H]2C(=O)Nc2cccc(Br)n2)c2ccc(Nc3cncc(F)c3)cc12`, which IC50 is on record?
A: < 1 µM

Source: ChEMBL document CHEMBL5725933, “Amino compounds for treatment of complement mediated disorders” (2017)
